Experimental data from patent EP1407768A2, “The potassium channel opener retigabine for the treatment of diseases” (GLAXO GROUP LIMITED, priority 1999, dated 2001).
Read-outs that look alike come from different tables or passages of the source.

What was measured:
[1] = target: T1, KCNQ2/3 potassium channel (Homo sapiens, UniProt O43525+O43526); experiment: Current clamp of oocytes expressing KCNQ2 plus KCNQ3: hyperpolarisation of the cell; type: cell-based
T1 construct: expressed in transfected cells; host or cells: Xenopus laevis oocytes injected with capped cRNA (KCNQ2 in pCIN3, KCNQ3 in pCIH6)
T1 sequence (O43526 1-844 isoform O43526-3): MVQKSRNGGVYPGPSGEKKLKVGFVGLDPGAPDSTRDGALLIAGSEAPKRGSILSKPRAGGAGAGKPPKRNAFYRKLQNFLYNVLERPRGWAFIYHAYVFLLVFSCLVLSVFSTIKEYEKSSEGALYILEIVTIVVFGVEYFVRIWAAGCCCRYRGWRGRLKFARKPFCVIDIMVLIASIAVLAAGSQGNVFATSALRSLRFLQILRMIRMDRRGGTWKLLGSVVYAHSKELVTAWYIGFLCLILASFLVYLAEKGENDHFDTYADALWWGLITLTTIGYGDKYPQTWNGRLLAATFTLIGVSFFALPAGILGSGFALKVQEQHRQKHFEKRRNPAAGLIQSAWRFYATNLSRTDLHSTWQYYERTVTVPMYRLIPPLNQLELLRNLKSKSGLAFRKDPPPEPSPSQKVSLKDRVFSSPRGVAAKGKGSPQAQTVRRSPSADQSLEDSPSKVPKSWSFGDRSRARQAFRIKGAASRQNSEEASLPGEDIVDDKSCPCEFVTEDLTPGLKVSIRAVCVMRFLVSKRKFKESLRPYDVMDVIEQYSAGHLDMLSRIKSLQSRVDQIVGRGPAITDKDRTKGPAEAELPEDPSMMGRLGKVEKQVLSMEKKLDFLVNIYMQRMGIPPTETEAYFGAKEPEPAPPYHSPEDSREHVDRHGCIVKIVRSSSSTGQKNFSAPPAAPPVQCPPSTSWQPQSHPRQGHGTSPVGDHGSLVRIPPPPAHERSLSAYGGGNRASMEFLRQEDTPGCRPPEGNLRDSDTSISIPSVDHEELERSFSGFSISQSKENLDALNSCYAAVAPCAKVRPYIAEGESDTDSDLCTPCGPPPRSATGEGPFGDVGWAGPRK
T1 sequence (O43525 whole entry): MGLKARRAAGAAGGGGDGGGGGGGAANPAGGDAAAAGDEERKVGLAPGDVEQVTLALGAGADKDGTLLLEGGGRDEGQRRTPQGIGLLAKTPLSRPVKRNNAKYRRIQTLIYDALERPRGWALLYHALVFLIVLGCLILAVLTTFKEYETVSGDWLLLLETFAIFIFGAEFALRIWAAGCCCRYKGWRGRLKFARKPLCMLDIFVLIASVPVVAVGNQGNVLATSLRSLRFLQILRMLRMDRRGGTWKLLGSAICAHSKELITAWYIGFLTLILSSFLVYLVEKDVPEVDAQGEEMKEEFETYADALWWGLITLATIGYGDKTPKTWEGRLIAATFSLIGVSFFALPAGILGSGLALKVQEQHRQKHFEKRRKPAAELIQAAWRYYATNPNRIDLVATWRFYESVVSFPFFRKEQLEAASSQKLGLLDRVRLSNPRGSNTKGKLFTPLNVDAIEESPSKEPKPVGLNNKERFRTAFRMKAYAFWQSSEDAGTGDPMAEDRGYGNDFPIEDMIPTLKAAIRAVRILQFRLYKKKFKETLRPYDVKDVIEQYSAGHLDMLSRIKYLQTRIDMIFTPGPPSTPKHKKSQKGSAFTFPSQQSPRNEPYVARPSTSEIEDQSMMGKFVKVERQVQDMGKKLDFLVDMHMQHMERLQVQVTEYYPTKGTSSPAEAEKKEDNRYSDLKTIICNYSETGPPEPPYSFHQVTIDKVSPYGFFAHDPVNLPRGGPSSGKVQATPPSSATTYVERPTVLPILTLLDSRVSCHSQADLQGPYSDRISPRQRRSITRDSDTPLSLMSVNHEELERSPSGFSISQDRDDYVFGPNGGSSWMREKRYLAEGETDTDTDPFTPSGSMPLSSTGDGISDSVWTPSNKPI

KCNQ2 = target: T2, KCNQ2 (Homo sapiens, UniProt O43526); experiment: Voltage-clamp of Xenopus oocytes expressing KCNQ2 alone (pSP64t vector); type: cell-based; settings: 10µM retigabine
T2 construct: expressed in transfected cells; host or cells: Xenopus oocytes, expression vector pSP64t
T2 sequence (O43526 1-844 isoform O43526-3): as the sequence (O43526 1-844 isoform O43526-3) above

[2] = test system: pentylene tetrazol-induced seizures in rats; settings: protection against pentylene tetrazol-induced seizures in rats; cited from earlier work
[3] = target: T1, KCNQ2/3 potassium channel; experiment: Two-microelectrode voltage-clamp of Xenopus oocytes expressing equimolar KCNQ2 plus KCNQ3; type: cell-based; settings: for fold induction at 10 µM: read-out: increase of outward KCNQ current amplitude, 10µM retigabine; for increase of the rate of current activation: data fitted to a single exponential
Source text: Human KCNQ2 and KCNQ3 potassium channels were cloned from a human brain CDNA library using standard methodology. All clones were sequenced and were identical to those reported in the literature (Charlier, C., Singh, N.A., Ryan, S.G., Lewis, T.B., Reus, B. E., Leach, R.J. Leppert, M. (1998). A pore mutation in a novel KQT-like potassium channel gene in an idiopathic epilepsy family. Nature Genetics 18: 53-55 and Singh, N.A., Charlier, C., Stauffer, D., DuPont, B.R., Leach, R.J., Melis, R., Ronen, G.M., Bjerre, I., Quattlebaum, T., Murphy, J.V., McHarg, M.L., Gagnon, D., Rosales, T.O., Peiffer, A., Anderson, E & Leppert, M. (1998) Nature Genetics, 18: 25-29).
Adult female Xenopus laevis (Blades Biologicals) were anaesthetised using 0.2% tricaine (3-aminobenzoic acid ethyl ester), killed and the ovaries rapidly removed. Oocytes were de-folliculated by collagenase digestion (Sigma type I, 1.5 mg ml^-1) in divalent cation-free OR2 solution (82.5mM NaCl, 2.5mM KCI, 1.2mM NaH2PO4, 5mM HEPES; pH 7.5 at 25°C). Single stage V and VI oocytes were transferred to ND96 solution (96mM NaCl, 2mM KCI, 1mM MgCl2, 1.8mM CaCl2, 5mM HEPES; pH 7.5 at 25°C) which contained 50µg ml^- ^1 gentamycin and stored at 18°C.
KCNQ2 (in pCIN3 vector) and KCNQ3 (in pCIH6) were linearised and transcribed to RNA using T7 or T3 polymerase (Promega Wizard kit). m'G(5')pp(5')GTP capped cRNA was injected into oocytes (20-50nl of 1µgµl^-1 RNA per oocyte) and whole-cell currents were recorded using two-microelectrode voltage-clamp (Geneclamp amplifier, Axon instruments Inc.) 3 to 5 days post-RNA injection. […] In all experiments oocytes were voltage-clamped at a holding potential of -90mV in ND96 solution (superfused at 2ml per min.) and test compounds were applied by addition to this extracellular solution. Current-voltage curves were constructed by applying 800ms voltage-clamp pulses from the holding potential of -90mV to test potentials between -85mV and +30mV..
Whole-cell currents were recorded from oocytes expressing KCNQ2 alone, KCNQ3 alone and an equimolar combination of KCNQ2 plus KCNQ3. Mean current amplitude (at +20mV) was 152 +/- 21 nA for KCNQ2 alone, 157 +/-19nA for KCNQ3 alone and 1467 +/- 420nA for KCNQ2 & KCNQ3. Further characterisation of the KCNQ2/KCNQ3 heteromeric channel (current-voltage curve, conductance plot, linopirdine block) gave similar results to those reported in the literature (Yang, W.-P., Levesque, P.C., Little, W.A., Conder, M.L., Ramakrishnan, P., Neubauer, M.G. & Blanar, M.A, (1998) Functional expression of two KvLQT1-related potassium channels responsible for an inherited idiopathic epilepsy. J. Biol. Chem., 31: 19419-19423 and Wang, H.-S., Pan, Z., Shi, W., Brown, B.S.,. Wymore, R.S., Cohen, I.S., Dixon, J.E. & McKinnon, D (1998) KCNQ2 and KCNQ3 potassium channel subunits: molecular correlates of the M-channel. Science 282: 1890-1893).
The effects of retigabine were studied in oocytes expressing equimolar KCNQ2 plus KCNQ3. Application of 10µM retigabine led to a pronounced 20mV hyperpolarising shift in the threshold for KCNQ current activation (n=5), such that an augmentation of KCNQ current was seen over the normal physiological range of membrane potentials. For example, at a test potential of -60mV, outward KCNQ current amplitude increased 8-fold in the presence of retigabine (6.2-fold at -70mV; 7.1-fold at -50mV; n=5). These changes in KCNQ current amplitude were associated with an increase in the rate of current activation: Retigabine increased the rate of current activation 15-fold at a test potential of -40mV, and 3-fold at a test potential of -30mV (data fitted to a single exponential in each case).
Application of retigabine led to a marked alteration in the properties of the KCNQ2/3 tail currents. In these experiments the voltage clamp protocols comprised a 1s prepulse from -100mV to +40mV to fully activate the KCNQ2/3 channel, followed by a 6s pulse to test potentials between -30mV and -110mV.

[4] = test system: carageenan model of inflammatory pain; experiment: Carageenan model of inflammatory pain; type: in vivo
Source text: Br. J. Pharmacol. 120: P78).

Q: Which EC50 [1] does the source give for `CCOC(=O)Nc1ccc(NCc2ccc(F)cc2)cc1N` [retigabine, 2-amino-4-(4-fluorobenzylamino)-1-ethoxycarbonylaminobenzene] here?
A: The EC50 was 5.2 µM.

Q: What about the Hill slope ([1]; hyperpolarisation of oocytes held under current clamp) of the same molecule?
A: The Hill slope was 1.1 ± 0.1.

Q: What about the “mean delay (rate of current activation)” value (KCNQ2; at -40mV, control 132+/-16ms) of the same molecule?
A: Its value is 75 ± 7 ms.

Q: What about the KCNQ current amplitude (KCNQ2; at -50mV, n=7, control = 145+/-34nA) of the same molecule?
A: The KCNQ current amplitude was 501+/-116 nA.

Q: What about the “hyperpolarising shift in the threshold for KCNQ2 current activation” value (KCNQ2; oocytes expressing KCNQ2 alone) of the same molecule?
A: Its value is 20 mV.

Q: What about the ED50 [2] of the same molecule?
A: Its ED50 is 6.2 mg/kg.

Q: What about the “hyperpolarising shift in the threshold for KCNQ current activation” value ([3]; 10µM retigabine, oocytes expressing equimolar KCNQ2 plus KCNQ3, n=5) of the same molecule?
A: The value was 20 mV.

Q: And the fold induction at 10 µM ([3]; test potential -50mV, n=5)?
A: The fold induction at 10 µM was 7.1.

Q: What about the fold induction at 10 µM ([3]; test potential -60mV, n=5) of the same molecule?
A: The fold induction at 10 µM was 8.

Q: What about the fold induction at 10 µM ([3]; test potential -70mV, n=5) of the same molecule?
A: The fold induction at 10 µM was 6.2.

Q: And the “increase of the rate of current activation” value ([3]; test potential -30mV)?
A: The value was 3 fold.

Q: And the “increase of the rate of current activation” value ([3]; test potential -40mV)?
A: Its value is 15 fold.

Q: What about the “KCNQ2/3 tail current deactivation” value ([3]; test potentials -30mV, -40mV after 1s prepulse from -100mV to +40mV) of the same molecule?
A: The value was “deactivation does not occur”.

Q: And the “rate of KCNQ2/3 channel deactivation in comparison to control” value ([3]; test potentials -50mV to -110mV after 1s prepulse from -100mV to +40mV)?
A: The value was “significantly slowed”.

Q: And the ED50 [4]?
A: The ED50 was 4.5 mg/kg.
